Test results as given in US6780869B1, “Pyrimidine derivatives” (SmithKline Beecham Corporation, priority 1999, dated 2004).

Assays:
human COX-2 = target: T1, human COX-2 (Homo sapiens, UniProt P35354); assay: Cell based assay, COS cells stably transfected with human COX-2, PGE2 release; conditions: inhibition of PGE2 release, 30 μM arachidonic acid
T1 construct: expressed in transfected cells; host or cells: COS cells (stably transfected)
T1 sequence (P35354 18-604): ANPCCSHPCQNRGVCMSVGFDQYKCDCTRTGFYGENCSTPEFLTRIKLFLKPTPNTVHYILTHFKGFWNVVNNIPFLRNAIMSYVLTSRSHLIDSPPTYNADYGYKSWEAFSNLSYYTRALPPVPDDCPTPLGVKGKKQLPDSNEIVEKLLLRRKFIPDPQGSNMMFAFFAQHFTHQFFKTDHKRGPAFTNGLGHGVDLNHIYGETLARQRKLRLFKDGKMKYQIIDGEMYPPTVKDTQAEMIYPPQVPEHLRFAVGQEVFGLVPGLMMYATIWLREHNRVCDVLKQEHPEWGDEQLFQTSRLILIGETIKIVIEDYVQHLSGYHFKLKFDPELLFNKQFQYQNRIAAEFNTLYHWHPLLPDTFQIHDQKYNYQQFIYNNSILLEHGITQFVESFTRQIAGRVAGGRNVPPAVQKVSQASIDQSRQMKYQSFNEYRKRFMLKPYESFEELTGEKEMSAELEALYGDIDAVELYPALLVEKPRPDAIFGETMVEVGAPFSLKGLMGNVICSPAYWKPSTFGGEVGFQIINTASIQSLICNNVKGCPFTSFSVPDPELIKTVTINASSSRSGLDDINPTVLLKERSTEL
Method: 24 Hours prior to experiment, COS cells were transferred from the 175 cm^2 flasks in which they were grown, onto 24-well cell culture plates using the following procedure. The incubation medium (Dulbecco's modified eagles medium (DMEM) supplemented with heat-inactivated foetal calf serum (10% v/v), penicillin (100 IU/ml), streptomycin (100 μg/ml) and geneticin (600 μg/ml)) was removed from a flask of confluent cells (1 flask at confluency contains approximately 1×10^7 cells). 5 ml of phosphate buffered saline (PBS) was added to the flask to wash the cells. […] The flask was then removed from the incubator and 5 ml of fresh incubation medium was added. The contents of the flask was transferred to a 250 ml sterile container and the volume of incubation medium subsequently made up to 100 ml. 1 ml cell suspension was pipetted into each well of 4×24-well cell culture plates. The plates were then placed in an incubator (37° C., 95% air/5% CO2) overnight. If more than 1 flask of cells were required, the cells from the individual flasks were combined before being dispensed into the 24-well plates.
Following the overnight incubation, the incubation medium was completely removed from the 24-well cell culture plates and replaced with 250 μl fresh DMEM (37° C.). The test compounds were made up to 250× the required test concentration in DMSO and were added to the wells in a volume of 1 μl. Plates were then mixed gently by swirling and then placed in an incubator for 1 hour (37° C., 95% air/5% CO2). […] Plates were then incubated for a further 10 minutes, after which the incubation medium was removed from each well of the plates and stored at −20° C., prior to determination of prostaglandin E2 (PGE2) levels using enzyme immunoassay. […] The selectivity ratio of inhibition of COX-1 versus COX-2 was calculated by comparing respective IC50 values.

COX-1 [1] = target: T2, COX-1 (Homo sapiens, UniProt P23219); assay: Cell based assay, COS cells stably transfected with human COX-1, PGE2 release; design: expressed in transfected cells; host or cells: COS cells (stably transfected); conditions: inhibition of PGE2 release, 30 μM arachidonic acid
Method: Inhibitory activity against human COX-1 and COX-2 was assessed in COS cells which had been stably transfected with EDNA for human COX-1 and human COX-2. 24 Hours prior to experiment, COS cells were transferred from the 175 cm^2 flasks in which they were grown, onto 24-well cell culture plates using the following procedure. The incubation medium (Dulbecco's modified eagles medium (DMEM) supplemented with heat-inactivated foetal calf serum (10% v/v), penicillin (100 IU/ml), streptomycin (100 μg/ml) and geneticin (600 μg/ml)) was removed from a flask of confluent cells (1 flask at confluency contains approximately 1×10^7 cells). 5 ml of phosphate buffered saline (PBS) was added to the flask to wash the cells. Having discarded the PBS, cells were then incubated with 5 ml trypsin for 5 minutes in an incubator (37°). The flask was then removed from the incubator and 5 ml of fresh incubation medium was added. The contents of the flask was transferred to a 250 ml sterile container and the volume of incubation medium subsequently made up to 100 ml. 1 ml cell suspension was pipetted into each well of 4×24-well cell culture plates. The plates were then placed in an incubator (37° C., 95% air/5% CO2) overnight. If more than 1 flask of cells were required, the cells from the individual flasks were combined before being dispensed into the 24-well plates.
Following the overnight incubation, the incubation medium was completely removed from the 24-well cell culture plates and replaced with 250 μl fresh DMEM (37° C.). The test compounds were made up to 250× the required test concentration in DMSO and were added to the wells in a volume of 1 μl. Plates were then mixed gently by swirling and then placed in an incubator for 1 hour (37° C., 95% air/5% CO2). Following the incubation period, 10 μl of arachidonic acid (750 μM) was added to each well to give a final arachidonic acid concentration of 30 μM. […] The selectivity ratio of inhibition of COX-1 versus COX-2 was calculated by comparing respective IC50 values.

microsomal h-COX2 = target: T3, microsomal h-COX2 (Homo sapiens, UniProt P35354); assay: Microsomal assay, microsomal preparation from baculovirus infected SF9 cells, PGE2 by EIA; type: biochemical; conditions: 0.1 μM arachidonic acid, read-out: COX-2: IC50
T3 construct: made in house; host or cells: baculovirus infected SF9 cells (microsomal preparation)
T3 sequence (P35354 18-604): T1 sequence (P35354 18-604)
Method: Inhibitory activity against microsomal h-COX2 was assessed against a microsomal preparation from baculovirus infected SF9 cells. An aliquot of microsomal preparation was thawed slowly on ice and a 1/40,000 dilution prepared from it into the assay buffer (sterile water, degassed with argon containing 100 mM HEPES (pH 7.4), 10 mM EDTA (pH7.4), 1 mM phenol, 1 mM reduced glutathione, 20 mg/ml gelatin and 0.001 mM Hematin). Once diluted the enzyme solution was then sonicated for 5 seconds (Branson sonicator, setting 4, 1 cm tip) to ensure a homogeneous suspension. 155 μl enzyme solution was then added to each well of a 96-well microtitre plate containing either 5 μl test compound (40× required test concentration) or 5 μl DMSO for controls. Plates were then mixed and incubated at room temperature for 1 hour. Following the incubation period, 40 μl of 0.5 μM arachidonic acid was added to each well to give a final concentration of 0.1 μM. Plates were then mixed and incubated for exactly 10 minutes (room temperature) prior to addition of 25 μl 1M HCl (hydrochloric acid) to each well to stop the reaction. 25 μl of 1M NaOH (sodium hydroxide) was then added to each well to neutralise the solution prior to determination of PGE2 levels by enzyme immunoassay (EIA).

COX-1 [2] = target: T2, COX-1; assay: Microsomal assay, COX-1; type: biochemical

T2 sequence (P23219 24-599): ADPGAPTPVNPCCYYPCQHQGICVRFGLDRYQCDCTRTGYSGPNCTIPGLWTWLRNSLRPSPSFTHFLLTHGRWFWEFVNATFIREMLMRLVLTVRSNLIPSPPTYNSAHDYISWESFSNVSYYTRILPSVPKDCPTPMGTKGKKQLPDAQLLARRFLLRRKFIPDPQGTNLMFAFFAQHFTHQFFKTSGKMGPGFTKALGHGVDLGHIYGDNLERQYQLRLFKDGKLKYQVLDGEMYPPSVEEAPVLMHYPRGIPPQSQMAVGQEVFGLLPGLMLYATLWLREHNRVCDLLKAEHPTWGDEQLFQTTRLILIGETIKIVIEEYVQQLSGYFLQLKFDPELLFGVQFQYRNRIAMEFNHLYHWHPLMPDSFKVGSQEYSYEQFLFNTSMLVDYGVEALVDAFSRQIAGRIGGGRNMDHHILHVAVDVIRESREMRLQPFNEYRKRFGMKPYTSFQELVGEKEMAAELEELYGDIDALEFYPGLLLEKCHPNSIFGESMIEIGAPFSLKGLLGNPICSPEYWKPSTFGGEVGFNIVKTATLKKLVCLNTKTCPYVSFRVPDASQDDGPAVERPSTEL

| SMILES | IC50 (human COX-2) [nM] | IC50 (COX-1 [1]) [nM] | IC50 (microsomal h-COX2) [nM] | IC50 (COX-1 [2]) [nM] |
| --- | --- | --- | --- | --- |
| CS(=O)(=O)c1ccc(-c2cc(C(F)(F)F)nc(NC3CCCC3)n2)cc1 [Example 1, N-cyclopentyl-4-[4-(methylsulfonyl)phenyl]-6-(trifluoromethyl)pyrimidin-2-amine] | 0.1 | > 24600 |  |  |
| CS(=O)(=O)c1ccc(-c2cc(C(F)(F)F)nc(NC3CCCCC3)n2)cc1 [Example 2, N-cyclohexyl-4-[4-(methylsulfonyl)phenyl]-6-(trifluoromethyl)pyrimidin-2-amine] | 0.5 | > 58400 |  |  |
| CC(C)CNc1nc(-c2ccc(S(C)(=O)=O)cc2)cc(C(F)(F)F)n1 [Example 8, N-isobutyl-4-[4-(methylsulfonyl)phenyl]-6-(trifluoromethyl)pyrimidin-2-amine] | 2 | > 66000 | 12 | > 100000 |
| CS(=O)(=O)c1ccc(-c2cc(C(F)(F)F)nc(NCC3CCC3)n2)cc1 [Example 31, N-(cyclobutylmethyl)-4-[4-(methylsulfonyl)phenyl]-6-(trifluoromethyl)pyrimidin-2-amine] |  |  | < 1 | > 100000 |
